Reference: patent US20220273658A1, “SMALL MOLECULE LIVER X RECEPTOR MODULATORS AND USES THEREOF” (University of Houston System, priority 2019, published 2022)
Values belong to the compound of their own block, whether it stands above or below them.

Experiments:
[1] = tested on: MDSC and CD8+ T-cells; details: in vivo; cited from earlier work
[2] = tested on: PDAC cell lines; assay: tetrazolium salt reduction (WST) assay in PDAC cell lines; format: cell-based, human; details: GW3965, WST assay
Method: (§1) To determine the effects of LXR ligands on PDAC cell proliferation, cells were treated with synthetic LXR agonist GW3965 and live cells were quantified using trypan blue exclusion assays. […] FIGS. 8A, 8B, and 8C show dose-dependent decreases in cell proliferation in BxPC-3, Mia-PaCa-2, and PANC-1, respectively upon treatment with increasing GW3965 concentrations. […] Clonogenic assays were also employed to evaluate the effects of long-term LXR ligand treatment on cell proliferation and colony formation. […] These findings indicate that LXRs are involved in PDAC cell proliferation and targeting LXRs with ligands perturb their normal functions in cell proliferation.
(§2) The initial identification and subsequent characterization of the two novel LXR ligands and their derivative compounds was carried out in screens in three human pancreatic cancer cell and one non-transformed human pancreatic epithelial cell line in three or more replicate experiments for each cell line using the WST tetrazolium salt reduction assays.

[3] = tested on: myeloid-derived suppressor cells (MDSCs); details: in vivo; cited from earlier work
[4] = tested on: LXR target genes SREBF1c, ABCA1, and ABCG1; assay: expression of LXR target genes in pancreatic cancer cell lines; format: cell-based, human; details: for expression of LXR target genes: three pancreatic cancer cell lines
Excerpt: To characterize the activity of the newly discovered ligands, the expression of LXR target genes SREBF1c, ABCA1, and ABCG1 was examined following treatment with vehicle, synthetic agonist GW3965, and Compounds 1E5 and 3A4. […] Basal expression of SREBF1c, the canonical LXR target gene involved in the regulation of glucose and lipid metabolism, was disrupted by the addition of novel LXR ligands, whereas their expression was induced following treatment with synthetic agonist GW3965 in all three pancreatic cancer cell lines tested, whereas the effects on ABCA1 and ABCG1 varied between the two novel ligands and across the cell lines.
(§3) To elucidate mechanisms of inverse agonism by the novel ligands, TR-FRET experiments were conducted to determine the effects of 1E5 and 3A4 on the recruitment of NR co-activators and co-repressors. […] In addition to their functions as inverse agonists, extended treatments with 1E5 and 3A4 also destabilized or decreased LXR proteins.

[5] = pre-clinical testing; cited from earlier work
[6] = tested on: PDAC cell lines; assay: MTS assay of overall cell metabolic rate; format: cell-based, human; details: increasing concentrations of GW3965
[7] = tested on: BxPC-3, Mia-PaCa-2, and PANC-1; assay: cell proliferation, live cells quantified by trypan blue exclusion; format: cell-based, human; details: increasing GW3965 concentrations; all three cell lines
Method: as §1

[8] = tested on: BxPC-3-luc2 cells; assay: orthotopic xenograft mouse model of pancreatic cancer; format: in vivo
Excerpt: Data from studies using cultured cancer cell lines indicate that LXR agonists have anti-proliferative effects on PDAC cells by disrupting cell cycle progression and expression of key regulatory proteins and growth pathways. To determine the effects of ligands in vivo using a live imaging system, BxPC-3 cells engineered with […] firefly luciferase gene (BxPC-3-luc2) were obtained from a commercial source (Perkin Elmer) and then validated for luciferase expression and response to GW3965 treatment in culture. […] NCr athymic nude mice (n=5 per treatment group) were orthotopically injected with BxPC-3-luc2 cells and then gavaged daily with GW3965 dissolved in 0.5% methylcellulose or vehicle only. Animals were anesthetized, injected with luciferin, and imaged weekly to monitor and quantify tumor growth. […] Experiments were terminated after two weeks due to the morbidity associated with the tumor burden in test animals. […] Statistically significant differences in additive effects as compared to single compound treatments are denoted with asterisks.

[9] = tested on: PDAC cell lines; assay: clonogenic assay, colony formation; format: cell-based, human; details: long-term treatment, each cell line
Method: as §1

[10] = tested on: PDAC cells; assay: cell viability with glutaminase inhibitor BPTES and 1E5; format: cell-based, human; details: BPTES alone
Excerpt: TCA cycle intermediates act as anaplerotic substrate for gluconeogenesis and lipogenesis. […] GOT2 converts glutamine-derived glutamate to alpha-KG. During this process oxaloacetate is converted to aspartate which is required to maintain redox homeostasis. Studies have shown that inhibition of GOT2 in PDAC promotes senescence.

[11] = tested on: PDAC; details: PDAC patients; cited from earlier work
[12] = tested on: PDAC cells; assay: treatment of PDAC cells with KD-01-39 (FIG. 32); format: cell-based, human; details: all cancer lines tested
Excerpt: (§4) The synthesis and characterization of KD-01-39, a derivative of 3A4, have not been described previously.

[13] = tested on: LXR ligand-binding domain; assay: TR-FRET assay of co-activator and co-repressor peptide recruitment; format: biochemical
Method: as §3, §4

[14] = tested on: KPC tumor cells; assay: growth of KPC tumor cells from mouse model of PDAC; format: cell-based
Excerpt: The effects of the ligands and derivatives on the growth of PDAC cells were further validated by cell counting and clonogenic assays.

[15] = tested on: LXR-LBD; assay: differential scanning fluorimetry; format: binding
Excerpt: as §4

[16] = tested on: HPNE cells; assay: growth of non-transformed pancreatic epithelial cells (WST screen; FIG. 32D); format: cell-based, human; details: FIG. 32(D)
Method: as §2, §4

Structure (SMILES): Cc1cc(C)c(S(=O)(=O)N(CCc2cccc(Br)c2)Cc2ccc(-c3cccc(S(C)(=O)=O)c3)cc2)c(C)c1 [SR9243]
MDSC recruitment to tumors [1]: decreased MDSC recruitment to tumors | expansion and recruitment of tumor-killing CD8+ T-cells [1]: increased the expansion and recruitment

Structure (SMILES): O=C(O)Cc1cccc(OCCCN(Cc2cccc(C(F)(F)F)c2Cl)CC(c2ccccc2)c2ccccc2)c1 [GW3965]
growth of PDAC cell lines [2]: suppressed the growth of PDAC cell lines in a dose-dependent manner | anti-tumor effects of PD-1 inhibitor immunotherapy [3]: enhanced the anti-tumor effects of PD-1 inhibitor immunotherapy | recruitment and apoptosis of immunosuppressive MDSCs [3]: blocked the recruitment and increased apoptosis | basal expression of SREBF1c ([4]; all three pancreatic cancer cell lines): induced | expression of LXR target genes [4]: increased target gene expression | circulating and liver triglyceride levels [5]: increased circulating and liver triglyceride levels | overall metabolism (MTS) [6]: dose-dependent drop in overall metabolism | cell proliferation [7]: significantly inhibited | tumor growth (luciferase signal) ([8]; 40 mg/kg and 80 mg/kg, daily gavage, one and two weeks): reduced tumor growth | tumor size, post-mortem examination ([8]; control vs treated animals): significant differences in tumor size | bioavailability following ingestion ([8]; daily gavage): confirmed the bioavailability | toxicity following ingestion ([8]; mouse, in vivo): low toxicity | colony formation [9]: strongly inhibited colony formation

Structure (SMILES): O=S(=O)(c1ccccc1)N(CC(F)(F)F)c1ccc(C(O)(C(F)(F)F)C(F)(F)F)cc1 [Compound T0901317]
circulating and liver triglyceride levels [5]: increased circulating and liver triglyceride levels

Structure (SMILES): O=C(Cc1ccccc1)Nc1nnc(CCSCCc2nnc(NC(=O)Cc3ccccc3)s2)s1 [BPTES, reference compound]
pancreatic cancer cell viability [10]: reduced pancreatic cancer cell viability

Structure (SMILES): Nc1ccn([C@@H]2O[C@H](CO)[C@@H](O)C2(F)F)c(=O)n1 [gemcitabine]
improvement of median survival [11]: approximately two weeks

Structure (SMILES): C[C@H](CCOc1cccc(CC(=O)O)c1)N(Cc1cccc(C(F)(F)F)c1Cl)CC(c1ccccc1)c1ccccc1 [RGX-104]
anti-tumor effects of PD-1 inhibitor immunotherapy [3]: enhanced the anti-tumor effects of PD-1 inhibitor immunotherapy | recruitment and apoptosis of immunosuppressive MDSCs [3]: blocked the recruitment and increased apoptosis

efficacy against cancer lines compared with 3A4 [12]: same or similar efficacy as 3A4 | effect on non-cancerous pancreatic HPNE cells [16]: minimal effect
Structure (SMILES): COc1cc(OC)cc(C(=O)N2CCN(c3ccccc3Br)CC2)c1 [KD-01-39]
co-activator peptide binding to LXR ligand-binding domain ([13]; co-activator (D22) peptide): did not affect recruitment of co-activator peptides | binding of NCOR and SMRT co-repressor peptides ([13]; co-repressor (NCOR and SMRT-ID2) peptides): enhanced recruitment of NCOR and SMRT co-repressor peptides in a dosage dependent manner | expression of LXR target genes [4]: decreased the expression of LXR target genes | growth of KPC tumor cells [14]: inhibition of pancreatic cancer cells | LXR-LBD structure and dye dissociation with increasing temperature [15]: disrupted the LBD structure
